ChEMBL document CHEMBL5131488, “Design and synthesis of pyrido[2,3-d]pyrimidine derivatives for a novel PAC1 receptor antagonist” (Eur J Med Chem, 2022)
In brackets after ≈: the same amount, converted by molar mass. Activity calls are given as the source filed them. The rule behind the calls is not given here.

Experiments:
[1] = target: T1, Pituitary adenylate cyclase-activating polypeptide type I receptor (Homo sapiens, UniProt P41586); assay: Antagonist activity at PAC-1 receptor (unknown origin) expressed in CHO cells assessed as inhibition of PACAP-induced CREB phosphorylation at 1 nM pretreated for 30 mins followed by PACAP stimulation for 30 mins by western blot analysis; format: cell-based; settings: filed as antagonist, time 60.0 min
Target sequence in this assay (P41586 21-468 limits assumed): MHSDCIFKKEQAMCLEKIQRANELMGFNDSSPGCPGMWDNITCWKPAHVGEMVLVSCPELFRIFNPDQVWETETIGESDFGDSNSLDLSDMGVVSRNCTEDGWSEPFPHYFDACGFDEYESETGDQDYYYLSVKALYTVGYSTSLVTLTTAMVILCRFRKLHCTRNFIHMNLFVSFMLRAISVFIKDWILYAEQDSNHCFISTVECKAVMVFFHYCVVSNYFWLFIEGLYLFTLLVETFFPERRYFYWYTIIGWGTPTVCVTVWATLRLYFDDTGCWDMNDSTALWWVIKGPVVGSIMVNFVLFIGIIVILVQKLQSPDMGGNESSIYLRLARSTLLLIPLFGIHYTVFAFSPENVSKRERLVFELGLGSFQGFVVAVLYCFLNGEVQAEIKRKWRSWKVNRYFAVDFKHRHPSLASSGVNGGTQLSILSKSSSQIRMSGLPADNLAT

[2] = Plasma protein binding in human measured after 5 hrs by LC-MS/MS analysis; format: ADME, cell-free; settings: read-out: PPB (converted)
[3] = Plasma protein binding in mouse measured after 5 hrs by LC-MS/MS analysis; format: ADME, cell-free; settings: read-out: PPB (converted)
[4] = Metabolic stability in human liver microsomes assessed as parent compound remaining in presence of NADPH at 0.5 uM measured after 10 mins by LC-MS/MS analysis; format: ADME, Microsome; settings: read-out: Stability
[5] = Aqueous solubility of the compound in phosphate buffered saline at 100 uM at pH 7.4 by HPLC analysis; format: physicochemical
[6] = Tmax in C57BL/6J mouse at 30 mg/kg, po measured up to 24 hrs by LC-MS/MS analysis; format: ADME, organism-based; settings: in vivo
[7] = Cmax in C57BL/6J mouse at 30 mg/kg, ip measured up to 24 hrs by LC-MS/MS analysis; format: ADME, organism-based; design: time < 24 hrs, dose 30 mg/kg, route ip; settings: in vivo
[8] = Metabolic stability in mouse liver microsomes assessed as parent compound remaining in presence of NADPH at 0.5 uM measured after 60 mins by LC-MS/MS analysis; format: ADME, Microsome; settings: read-out: Stability
[9] = Half life in C57BL/6J mouse at 30 mg/kg, po measured up to 24 hrs by LC-MS/MS analysis; format: ADME, organism-based; settings: in vivo
[10] = Half life in C57BL/6J mouse at 30 mg/kg, ip measured up to 24 hrs by LC-MS/MS analysis; format: ADME, organism-based; settings: in vivo
Mus musculus [11] = assay: Inhibition of PACAP-induced aversive behaviour in it dosed ddY mouse administered as single dose and measured for 30 mins; format: functional, organism-based; settings: dose 10-100 pmol, DDE = dose-dependent effect
[12] = Metabolic stability in human liver microsomes assessed as parent compound remaining in presence of NADPH at 0.5 uM measured after 60 mins by LC-MS/MS analysis; format: ADME, Microsome; settings: read-out: Stability
[13] = Metabolic stability in mouse liver microsomes assessed as parent compound remaining in presence of NADPH at 0.5 uM measured after 10 mins by LC-MS/MS analysis; format: ADME, Microsome; settings: read-out: Stability
Mus musculus [14] = assay: Antiallodynic activity in ddY mouse assessed as inhibition of PACAP-evoked mechanical allodynia at 10 to 100 pmol administered via IT as single dose and measured after 14 days; format: functional, organism-based; settings: dose 10-100 pmol, time 14.0 day
[15] = Cmax in C57BL/6J mouse at 30 mg/kg, po measured up to 24 hrs by LC-MS/MS analysis; format: ADME, organism-based; design: dose 30 mg/kg, time < 24 hrs, route po; settings: in vivo
[16] = Tmax in C57BL/6J mouse at 30 mg/kg, ip measured up to 24 hrs by LC-MS/MS analysis; format: ADME, organism-based; settings: in vivo
[17] = Permeability of the compound across apical to basolateral side in human Caco-2 cells at 25 uM incubated for 2 hrs by LC/MS/MS analysis; format: ADME, cell-based; settings: read-out: permeability
Mus musculus [18] = assay: Antiallodynic activity in ddY mouse assessed as inhibition of SNL-induced mechanical allodynia at 30 mg/kg, ip administered once daily for 7 days and measured at 1 hr post-last dosage; format: functional, organism-based; settings: time 7.0 day
Mus musculus [19] = assay: Antiallodynic activity in ddY mouse assessed as inhibition of spinal nerve ligation-evoked mechanical allodynia at 10 pmol administered via IT as single dose and measured after 3 hrs; format: functional, organism-based
Mus musculus [20] = assay: Antiallodynic activity in ddY mouse assessed as inhibition of spinal nerve ligation-evoked mechanical allodynia at 10 pmol administered via IT as single dose and measured after 2 to 4 hrs; format: functional, organism-based; settings: time 2-4 hrs
[21] = target: T1, Pituitary adenylate cyclase-activating polypeptide type I receptor; assay: Antagonist activity at PAC-1 receptor (unknown origin) expressed in CHO cells assessed as inhibition of PACAP-induced increase in intracellular cAMP level pretreated for 30 mins followed by PACAP stimulation measured after 1 hr by cAMP-Glo assay; format: cell-based; settings: for Activity: filed as antagonist, time 90.0 min, DDE = dose-dependent effect
Mus musculus [22] = assay: Antiallodynic activity in ddY mouse assessed as inhibition of SNL-induced mechanical allodynia at 30 mg/kg, ip administered once daily for 7 days and measured for 3 days after termination of repetitive drug administration; format: functional, organism-based; settings: time 7.0 day

Nc1nc2c(c(=O)[nH]1)C(c1cccc(Br)c1)CC(=O)N2 (centres undefined)
Activity [1]: Active

CCCCc1cccc(C2CC(=O)Nc3nc(N)[nH]c(=O)c32)c1 (centres undefined)
Activity [1]: Active

CCCOc1cc(C2CC(=O)Nc3nc(N)[nH]c(=O)c32)ccc1OC (centres undefined)
Activity [1]: Active

CCOc1cc(C2CC(=O)Nc3nc(N)[nH]c(=O)c32)ccc1OC (centres undefined)
Activity [1]: Active

Nc1nc2c(c(=O)[nH]1)C(c1ccc(F)c(F)c1)CC(=O)N2 (centres undefined)
Activity [1]: Active

CCOc1ccc(C2CC(=O)Nc3nc(N)[nH]c(=O)c32)cc1OCC (centres undefined)
Activity [1]: Active

CCc1cccc(C2CC(=O)Nc3nc(N)[nH]c(=O)c32)c1 (centres undefined)
Activity [1]: Active

C=CCOc1cccc(C2CC(=O)Nc3nc(N)[nH]c(=O)c32)c1 (centres undefined)
Activity [1]: Active

CCOc1cccc(C2CC(=O)Nc3nc(N)[nH]c(=O)c32)c1 (centres undefined)
fraction unbound at 5 h [2]: 0.345
fraction unbound at 5 h [3]: 0.474
remaining at 10 min, 0.5 µM [4]: 93%
solubility at 100 µM [5]: 27.9 µM (≈ 8.38 µg/mL)
Tmax [6]: 15 min
Cmax [7]: 29.3 µM
remaining at 1 h, 0.5 µM [8]: 84%
half-life [9]: 79.2 min
half-life [10]: 137 min
inhibition (Mus musculus [11]): Dde
remaining at 1 h, 0.5 µM [12]: 93%
remaining at 10 min, 0.5 µM [13]: 92%
Activity (Mus musculus [14]): Active
Cmax [15]: 1930 nM
Activity [1]: Active
Tmax [16]: 15 min
Papp A→B at 2 h, 25 µM [17]: 0.3 ×10⁻⁶ cm/s

Nc1nc2c(c(=O)[nH]1)C(c1cccc(Cl)c1)CC(=O)N2 (centres undefined)
Activity [1]: Active

CCOc1ccc(C2CC(=O)Nc3nc(N)[nH]c(=O)c32)cc1Br (centres undefined)
Activity [1]: Active

CCCOc1cccc(C2CC(=O)Nc3nc(N)[nH]c(=O)c32)c1 (centres undefined)
Activity [1]: Active

CCCc1cccc(C2CC(=O)Nc3nc(N)[nH]c(=O)c32)c1 (centres undefined)
Activity [1]: Active

CCOc1ccc(C2CC(=O)Nc3nc(N)[nH]c(=O)c32)cc1C (centres undefined)
Activity [1]: Active

COc1cccc(C2CC(=O)Nc3nc(N)[nH]c(=O)c32)c1 (centres undefined)
Activity [1]: Active

CCOc1ccc(C2CC(=O)Nc3nc(N)[nH]c(=O)c32)cc1Cl (centres undefined)
Activity [1]: Active

CCCOc1ccc(C2CC(=O)Nc3nc(N)[nH]c(=O)c32)cc1OC (centres undefined)
Activity [1]: Active

C=CCOc1ccc(C2CC(=O)Nc3nc(N)[nH]c(=O)c32)cc1OC (centres undefined)
Activity (Mus musculus [18]): Active
fraction unbound at 5 h [2]: 0.304
fraction unbound at 5 h [3]: 0.505
remaining at 10 min, 0.5 µM [4]: 93%
solubility at 100 µM [5]: 92.2 µM (≈ 31.6 µg/mL)
Tmax [6]: 30 min
Cmax [7]: 14.3 µM
remaining at 1 h, 0.5 µM [8]: 94%
Activity (Mus musculus [19]): Active
half-life [9]: 103 min
half-life [10]: 131 min
inhibition (Mus musculus [11]): Dde
Activity (Mus musculus [20]): Active
IC50 [21]: 1.48 nM
Activity [21]: Dde
remaining at 1 h, 0.5 µM [12]: 91%
remaining at 10 min, 0.5 µM [13]: 96%
Activity (Mus musculus [14]): Active
Cmax [15]: 790 nM
Activity [1]: Active
Tmax [16]: 40.2 min
Papp A→B at 2 h, 25 µM [17]: 0.3 ×10⁻⁶ cm/s

CCOc1ccc(C2CC(=O)Nc3nc(N)[nH]c(=O)c32)cc1OC (centres undefined)
Activity [1]: Active

Nc1nc2c(c(=O)[nH]1)C(c1cccc(OC(F)(F)F)c1)CC(=O)N2 (centres undefined)
Activity (Mus musculus [18]): Active
fraction unbound at 5 h [2]: 0.11
fraction unbound at 5 h [3]: 0.298
remaining at 10 min, 0.5 µM [4]: 95%
solubility at 100 µM [5]: 93.3 µM (≈ 31.7 µg/mL)
Tmax [6]: 49.8 min
Cmax [7]: 40.6 µM
remaining at 1 h, 0.5 µM [8]: 93%
Activity (Mus musculus [19]): Active
half-life [9]: 165 min
half-life [10]: 144 min
inhibition (Mus musculus [11]): Dde
Activity (Mus musculus [20]): Active
Activity (Mus musculus [22]): Active
IC50 [21]: 0.11 nM
Activity [21]: Dde
remaining at 1 h, 0.5 µM [12]: 92%
remaining at 10 min, 0.5 µM [13]: 91%
Activity (Mus musculus [14]): Active
Cmax [15]: 20800 nM
Activity [1]: Active
Tmax [16]: 60 min
Papp A→B at 2 h, 25 µM [17]: 1.6 ×10⁻⁶ cm/s
